Data reported in patent publication US20220039390A1, “USE OF […] FOR C[…] VEGETATION IN BETA VULGARIS GROWING AREAS” (KWS SAAT SE & Co. KGaA, priority 2018, published 2022).

Assays:
[1] = test system: sugar beet (Beta vulgaris); assay: Glyphosate selection of mutagenized (EMS/ENU) M2 sugar beet plants, field spray then greenhouse treatment; assay type: in vivo; conditions: 600 g/ha glyphosate acid equivalent
Source text: 6 kg seeds of sugar beet elite line T807 (3BT1760, MO population) were mutagenized with 0.5% EMS and 0.3% and 0.5%, respectively ENU, and subsequently drilled for steck production. Stecks were replanted for seed production occupying an area of 5.8 ha. M1 population sizes were 75,000 seed producing plants for EMS and 19,000 plants for ENU mutagenized seeds. The following M2 seed amounts (values given for purified seed) has been obtained: 240 kg for 0.5% EMS (idents A and B), 548 kg for 0.3% ENU (idents C and D), and 256 kg 0.5% ENU (idents E and F).
176 kg of idents A and B and 75 kg of idents C, D, E and F were sown on an approximately 15 ha spanning field site. Approximately 1 month after sowing, the entire field was sprayed with 0.88 I/ha ROUNDUP® MAX (680 g/kg glyphosate acid equivalent). Approximately 6 weeks later, plants surviving the glyphosate treatment were collected in the field, transplanted to pots and further cultivated in the greenhouses. Surviving plants were treated with 600 g/ha glyphosate acid equivalent about 2 months later. 172 plants survived that treatment in a very healthy stage without any signs of herbicide damage.
In order to identify the causative mutation behind the observed herbicide resistance sequencing analyses have been performed. […]

[2] = acid form, 25° C.; cited from earlier work

O=C(O)CNCP(=O)(O)O [glyphosate, N-phosphonomethylglycine]
resistance conferred by heterozygous P179S mutation in BvEPSPS ([1]; approx. 50% of standard field treatment level, based on screening and selection): complete resistance
plants that survived treatment in a very healthy stage without any signs of herbicide damage ([1]; potted greenhouse plants that had survived the ROUNDUP MAX field spray): 172 plants
solubility in water [2]: 1.16 % by weight
